In patent publication US9738610B2, “Indazole derivatives and uses thereof” (Whitehead Institute for Biomedical Research, priority 2012, dated 2017):

Key:
[1] = Plasma stability; details: % remaining in human plasma after a 5-hour incubation
[2] = Plasma protein binding; details: % bound in human plasma
[3] = tested on: C. albicans CaCi-2; assay: Secondary single-agent (no-fluconazole) activity assay; assay type: cell-based, Candida albicans; details: in the absence of fluconazole; read-out: Target Potency (μM) Mean ± S.E.M CaCi-2^b IC50
Method: Clear, flat-bottom, black, 384-well plates were obtained from Corning. […] Pen/Strep was obtained from Gibco and prepared 100× in PBS. Fluconazole was obtained from Sigma and prepared in 2 mg/ml stock solution in PBS. Alamar Blue was obtained from Biosource International (Catalog No. DAL1100). Phosphate buffered solution (PBS) without calcium and magnesium was obtained from Cellgro.
Fungal inoculum was prepared as follows: 500 μl of yeast was inoculated from cryopreserved stock into a 250-ml shaker flask containing 30 ml growth medium and shaken overnight (16 hours) at 30° C. The culture was spun down, and the broth was poured off and washed with RPMI medium. The culture was spun down again, and the broth was poured off and resuspended in RPMI medium. The OD 600 of 1 ml of fungal culture in a cuvette was read using a standard optical density reader with growth medium as a background blank. The desired volume of fungal inoculum was diluted to starting OD of the fungal inoculum of 0.00015 A600.
Pen/Strep was added to the media to a final 1% concentration. A Combi NL (Thermo) was used to dispense 20 μl/well of assay media into all wells. Geldanamycin (1.5 mM) and fluconazole (0.2 mg/ml) were mixed for the positive control. Then, 80 nl of positive control solution was dispensed into the positive control wells using Thermo Combi nL for a final concentration of 3 μM geldanamycin and 8 μg/ml fluconazole. Then, 100 nl of test compound were pinned from the compound plates into assay plates using a CyBi-Well pin tool. A further 20 μl/well of RPMI synthetic defined medium culture was dispensed into 384-well, black plates. Fungal suspension (20 μl/well) was dispensed into all wells. The plates were incubated in a humidified (90% humidity) Liconic incubator at 37° C. without agitation for 48 hours. Alamar Blue Reagent was diluted 1:40 in Ca/Mg-free PBS. To all plates, 6.4 μl/well of the diluted Alamar Blue was added to the plates to a final dilution factor of 1:200. The plates were incubated for 2 hours at room temperature. Next, RFU of wells was read on a standard plate reader as a measure of relative fungal growth.

[4] = tested on: C. albicans CaCi-8; assay: microbe, parasite or virus in culture; assay type: cell-based, Candida albicans; details: in the presence of fluconazole; read-out: Target Potency (μM) Mean ± S.E.M CaCi-8^a IC50
Method: This subset was re-subjected to the primary assay and was also tested concurrently in two secondary assays. Secondary assay 1 measured chemosensitization of the more resistant CaCi-8 strain. Secondary assay 2 eliminated anything with inherently antifungal activity. […] A final assay (secondary assay 3) was incorporated to discard any compound displaying toxicity to mammalian fibroblasts. […] This screening campaign is also illustrated in FIG. 3B.
Those that inhibited growth in the resistant strain were also tested for toxicity against Candida in the absence of fluconazole and for toxicity against mammalian cells using a fluorescence reporter assay. The positive control for screening in the Candida and mammalian cell assays was the Hsp90 inhibitor geldanamycin (acting in concert with fluconazole; FIG. 4). Compounds that passed these four hurdles were binned through use of a Saccharomyces assay to determine whether the mechanism of action might be through the Hsp90 pathway, the calcineurin pathway, or an uncategorized mechanism.

[5] = molecular target: T1, yeast (Saccharomyces cerevisiae, UniProt P00163); assay: IC50 values and selectivity of Table 10A (target yeast, anti-target human cytochrome); assay type: biochemical; details: for IC50: target is yeast; for Selectivity* (anti-target IC50)/(target IC50): target yeast, anti-target human cytochrome
T1 construct: Mitochondrial membranes were prepared from yeast; endogenous in cells; host or cells: yeast (mitochondrial membranes)
Method: All measurements were performed in triplicate.

Row | Compound | Plasma Stability [1] | Plasma Protein Binding [2] | IC50 [3] | IC50 [4] | IC50 [5] | Selectivity* (anti-target IC50)/(target IC50) [5]
1 | O=C(O)Cn1nc(-c2ccccc2)c2ccccc21 [Compound 5309553] | > 99% | 97% | > 26 µM | > 26 µM | – | –
2 | COC(=O)Cn1nc(-c2ccccc2)c2cc(Cl)ccc21 [Compound 9551137] | < 1.0% | > 99% | > 26 µM | 9.84 µM | – | –
3 | CCOC(=O)Cn1nc(-c2ccccc2)c2ccccc21 [Compound 13330959] | 20% | 99% | > 26 µM | > 26 µM | – | –
4 | COC(=O)Cn1nc(-c2ccc(Cl)cc2)c2ccccc21 [Compound 46856253] | 6.4% | > 99% | > 26 µM | 11.6 µM | – | –
5 | COC(=O)Cn1nc(C)c2ccccc21 [Compound 46856254] | 3.0% | 42% | – | 21.3 ± 8.1 µM | – | –
6 | COC(=O)Cn1nc(-c2ccc(C)cc2)c2ccccc21 [Compound 46856255] | 4.1% | 96% | > 26 µM | 11 µM | – | –
7 | COC(=O)Cn1nc(-c2ccccc2)c2ccc(OC)cc21 [Compound 49835812] | 1.3% | 38% | > 26 µM | 12.7 µM | – | –
8 | CC(C)OC(=O)Cn1nc(-c2ccccc2)c2ccccc21 [Compound 49835820] | 53% | 99% | > 26 µM | > 26 µM | – | –
9 | COCCn1nc(-c2ccccc2)c2ccccc21 [Compound 49835825] | 70% | > 99% | > 26 µM | > 26 µM | – | –
10 | c1ccc(-c2nn(Cc3ncco3)c3ccccc23)cc1 [Compound 49835836] | 97% | > 99% | > 26 µM | 34.2 ± 7.9 µM | – | –
11 | COC(=O)Cn1nc(-c2ccc(F)cc2F)c2ccccc21 [Compound I-70] | – | – | – | – | 0.275 µM | 58.2
12 | COC(=O)Cn1nc(-c2cccc(C(F)(F)F)c2)c2ccccc21 [Compound I-72] | – | – | – | – | 0.04 µM | 200
13 | CS(=O)(=O)Cn1nc(-c2ccccc2)c2ccccc21 [Compound I-73] | – | – | – | – | > 80 µM | –
14 | COC(=O)Cn1nc(-c2cccs2)c2ccccc21 [Compound I-76] | – | – | – | – | 1.25 µM | 32
15 | COC(=O)Cn1nc(-c2cccc(OCCC34CC5CC(CC(C5)C3)C4)c2)c2ccccc21 [Compound I-80] | – | – | – | – | 0.0125 µM | 20
16 | COC(=O)Cn1nc(-c2ccccc2)c2c(C)cccc21 [Compound I-81] | – | – | – | – | 1.25 µM | 8
17 | COC(=O)Cn1nc(-c2ccccc2)c2cc(C(F)(F)F)ccc21 [Compound I-83] | – | – | – | – | 40 µM | 3
18 | Cc1nnc(Cn2nc(-c3ccccc3)c3ccccc32)o1 [Compound I-84] | – | – | – | – | 8 µM | >32
19 | c1ccc(-c2nn(Cc3ncon3)c3ccccc23)cc1 [Compound I-85] | – | – | – | – | 2 µM | 40
20 | Cc1nc(Cn2nc(-c3ccccc3)c3ccccc32)no1 [Compound I-86] | – | – | – | – | 5 µM | >32
21 | COC(=O)Cn1nc(-c2cc(C(F)(F)F)ccc2F)c2ccccc21 [Compound I-88] | – | – | – | – | 0.025 µM | 200
22 | COC(=O)Cn1nc(-c2ccccc2)c2c(C(F)(F)F)cccc21 [Compound I-89] | – | – | – | – | 10 µM | 3.75
23 | Cn1nnc(Cn2nc(-c3ccccc3)c3ccccc32)n1 [Compound I-90] | – | – | – | – | 1.25 µM | 32
24 | Cn1nnnc1Cn1nc(-c2ccccc2)c2ccccc21 [Compound I-91] | – | – | – | – | > 20 µM | –
25 | c1ccc(-c2nn(Cc3c[nH]nn3)c3ccccc23)cc1 [Compound I-93] | – | – | – | – | 25 µM | >6

Row | Compound | Plasma Stability [1] | Plasma Protein Binding [2] | IC50 [3] | IC50 [4] | IC50 [5] | Selectivity* (anti-target IC50)/(target IC50) [5]
26 | Cn1cc(Cn2nc(-c3ccccc3)c3ccccc32)nn1 [Compound I-94] | – | – | – | – | 40 µM | >4
27 | Cn1nncc1Cn1nc(-c2ccccc2)c2ccccc21 [Compound I-95] | – | – | – | – | > 20 µM | –
28 | Cn1nnc(Cn2nc(-c3cc(C(F)(F)F)ccc3F)c3ccccc32)n1 [Compound I-98] | – | – | – | – | 0.063 µM | 48
29 | COC(=O)Cn1nc(-c2cc(OCCCC3CCCCC3)ccc2F)c2ccccc21 [Compound I-100] | – | – | – | – | 0.007 µM | 54
30 | COC(=O)Cn1nc(-c2cc(OCCCC3CCCCC3)ccc2F)c2cccc(C)c21 [Compound I-101] | – | – | – | – | 0.0015 µM | 49
31 | Cc1cccc2c(-c3cc(OCCCC4CCCCC4)ccc3F)nn(Cc3nnn(C)n3)c12 [Compound I-103] | – | – | – | – | 0.007 µM | 71
32 | FC(F)Cn1nc(-c2ccccc2)c2ccccc21 [Compound I-110] | – | – | – | – | > 120 µM | –
33 | N#Cc1ncccc1-n1nc(-c2ccccc2)c2ccccc21 [Compound I-112] | – | – | – | – | > 120 µM | –
34 | c1ccc(-c2nn(Cc3ccccn3)c3ccccc23)cc1 [Compound I-114] | – | – | – | – | > 120 µM | –
35 | COC(=O)Cn1nc(-c2cccnc2)c2ccccc21 [Compound I-121] | – | – | – | – | 15 µM | –
36 | c1ccc(-c2nn(Cc3ncccn3)c3ccccc23)cc1 [Compound I-123] | – | – | – | – | > 120 µM | –
37 | Fc1ccc(C(F)(F)F)cc1-c1nn(Cc2cnccn2)c2ccccc12 [Compound I-125] | – | – | – | – | 0.059 µM | 340
38 | Cc1cccc2c(-c3cc(C(F)(F)F)ccc3F)nn(Cc3cnccn3)c12 [Compound I-126] | – | – | – | – | 0.094 µM | 320
39 | COC(=O)Cn1nc(-c2c(C)cccc2C)c2ccccc21 [Compound I-127] | – | – | – | – | > 32 µM | –
40 | COC(=O)Cn1nc(-c2c(F)cccc2F)c2ccccc21 [Compound I-128] | – | – | – | – | 0.5 µM | 32
41 | COC(=O)Cn1nc(-c2cc(F)ccc2F)c2ccccc21 [Compound I-129] | – | – | – | – | 0.15 µM | 133
42 | COC(=O)Cn1nc(-c2cccc(F)c2F)c2ccccc21 [Compound I-130] | – | – | – | – | 0.25 µM | 32
43 | COC(=O)Cn1nc(-c2cc(F)ccc2C)c2ccccc21 [Compound I-131] | – | – | – | – | 0.4 µM | 40
44 | COC(=O)Cn1nc(-c2ccccc2Cl)c2ccccc21 [Compound I-132] | – | – | – | – | 0.75 µM | 32
45 | COC(=O)Cn1nc(-c2cccc(OCc3ccccc3)c2C)c2ccccc21 [Compound I-133] | – | – | – | – | 0.4 µM | 30
46 | COC(=O)Cn1nc(-c2cc(OCc3ccccc3)ccc2C)c2ccccc21 [Compound I-135] | – | – | – | – | 0.8 µM | 3.75
47 | COC(=O)Cn1nc(-c2cccc(OCCN(C)C)c2)c2ccccc21 [Compound I-137] | – | – | – | – | > 32 µM | –
48 | CCN(CC)CCOc1cccc(-c2nn(CC(=O)OC)c3ccccc23)c1 [Compound I-138] | – | – | – | – | > 32 µM | –
49 | COC(=O)Cn1nc(-c2cccc(OCCN(C(C)C)C(C)C)c2)c2ccccc21 [Compound I-139] | – | – | – | – | 1 µM | 6
50 | COC(=O)Cn1nc(-c2cccc(OCCC3CCCCC3)c2)c2ccccc21 [Compound I-141] | – | – | – | – | 0.0625 µM | 12
